Measured values published in paper PMC8842224 (Journal of Medicinal Chemistry, 2022).
Values after ≈ are worked out from the molar mass of the structure shown. Read-outs that look alike come from different tables or passages of the source. Marks after values point to notes of the source that are not given here.

Assays:
human A1AR [1] = biological target: T1, human A1AR (Homo sapiens, UniProt P30542); details: for Exp absolute binding affinity (ΔGbind): experimental, A1AR; for Ki: read-out: hA1 Ki, displacement of specific [3H]DPCPX binding, human CHO cells, ± SEM, n = 3
T1 sequence (P30542 1-326): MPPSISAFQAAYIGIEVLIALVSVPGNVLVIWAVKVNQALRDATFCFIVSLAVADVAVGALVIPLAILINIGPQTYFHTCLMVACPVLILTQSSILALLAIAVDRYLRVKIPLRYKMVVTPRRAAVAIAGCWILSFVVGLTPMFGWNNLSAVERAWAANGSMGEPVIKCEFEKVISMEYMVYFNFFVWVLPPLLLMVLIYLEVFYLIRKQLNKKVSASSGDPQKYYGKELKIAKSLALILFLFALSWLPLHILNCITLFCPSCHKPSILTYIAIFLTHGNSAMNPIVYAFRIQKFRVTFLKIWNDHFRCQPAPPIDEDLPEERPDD

P-glycoprotein (P-gp) = P-glycoprotein (P-gp) (Homo sapiens, UniProt P08183); details: MDCK-MDR1 cells, NA = not active
Sequence of P-glycoprotein (P-gp) (P08183 whole entry): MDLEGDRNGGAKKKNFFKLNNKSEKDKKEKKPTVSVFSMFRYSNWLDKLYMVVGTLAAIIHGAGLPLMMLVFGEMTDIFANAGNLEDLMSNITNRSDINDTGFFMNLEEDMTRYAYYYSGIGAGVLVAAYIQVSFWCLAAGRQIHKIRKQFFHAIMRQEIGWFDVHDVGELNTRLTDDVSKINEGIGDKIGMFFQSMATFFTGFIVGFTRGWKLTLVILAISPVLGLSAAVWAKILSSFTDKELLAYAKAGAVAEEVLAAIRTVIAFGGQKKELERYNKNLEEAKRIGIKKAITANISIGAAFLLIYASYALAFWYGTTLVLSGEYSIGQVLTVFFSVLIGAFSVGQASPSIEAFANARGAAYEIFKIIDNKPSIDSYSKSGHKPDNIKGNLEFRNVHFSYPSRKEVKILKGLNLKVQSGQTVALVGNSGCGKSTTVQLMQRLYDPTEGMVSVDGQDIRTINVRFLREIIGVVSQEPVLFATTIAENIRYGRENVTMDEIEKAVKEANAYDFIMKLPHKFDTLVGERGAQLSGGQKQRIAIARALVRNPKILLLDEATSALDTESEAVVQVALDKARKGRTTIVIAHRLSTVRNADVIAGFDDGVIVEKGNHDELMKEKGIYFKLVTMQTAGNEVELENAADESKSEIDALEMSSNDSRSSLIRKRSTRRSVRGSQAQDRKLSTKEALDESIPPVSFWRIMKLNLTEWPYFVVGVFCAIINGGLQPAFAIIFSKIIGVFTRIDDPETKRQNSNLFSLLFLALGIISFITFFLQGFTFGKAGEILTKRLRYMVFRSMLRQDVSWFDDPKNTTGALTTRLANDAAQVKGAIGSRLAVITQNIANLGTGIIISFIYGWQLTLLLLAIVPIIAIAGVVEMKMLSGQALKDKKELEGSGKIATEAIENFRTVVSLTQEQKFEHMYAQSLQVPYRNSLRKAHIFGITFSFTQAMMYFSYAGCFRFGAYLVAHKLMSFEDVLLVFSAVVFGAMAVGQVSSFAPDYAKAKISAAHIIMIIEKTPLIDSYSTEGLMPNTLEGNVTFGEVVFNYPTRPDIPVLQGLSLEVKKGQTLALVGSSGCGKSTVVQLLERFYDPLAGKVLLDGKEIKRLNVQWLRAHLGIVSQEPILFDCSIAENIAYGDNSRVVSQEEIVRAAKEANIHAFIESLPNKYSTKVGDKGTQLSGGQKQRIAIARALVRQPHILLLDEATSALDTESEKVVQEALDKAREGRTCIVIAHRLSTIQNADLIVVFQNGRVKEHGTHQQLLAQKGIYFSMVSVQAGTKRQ

human A1AR [2] = biological target: T1, human A1AR; test: biochemical
hA1ARs = biological target: T2, hA1ARs (Homo sapiens, UniProt P30542); details: NECA 100 nM, forskolin 3 μM
T2 sequence (P30542 1-326): T1 sequence (P30542 1-326)

A3 = details: printed in Figure 2; cited from earlier work
A2A = details: cited from earlier work
hA2A = hA2A (Homo sapiens, UniProt P29274); test: cAMP functional assay, inhibition of NECA effect; assay type: cell-based; details: read-out: hA2A % Inhib. NECA (1 μM)
Sequence of hA2A (P29274 whole entry): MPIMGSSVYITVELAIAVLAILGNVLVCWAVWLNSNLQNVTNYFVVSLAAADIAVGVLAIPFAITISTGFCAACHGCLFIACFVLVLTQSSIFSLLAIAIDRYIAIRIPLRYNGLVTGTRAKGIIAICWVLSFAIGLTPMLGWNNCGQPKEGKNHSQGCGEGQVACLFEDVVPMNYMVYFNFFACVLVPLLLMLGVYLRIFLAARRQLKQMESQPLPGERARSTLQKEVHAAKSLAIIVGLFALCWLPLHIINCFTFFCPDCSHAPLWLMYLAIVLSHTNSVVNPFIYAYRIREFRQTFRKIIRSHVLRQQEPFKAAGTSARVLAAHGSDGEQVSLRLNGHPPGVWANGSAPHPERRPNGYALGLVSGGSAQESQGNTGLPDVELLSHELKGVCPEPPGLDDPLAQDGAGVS

hA3 = biological target: T3, hA3 (Homo sapiens, UniProt P0DMS8); test: cAMP functional assay, inhibition of NECA effect; assay type: cell-based; details: read-out: hA3 % Inhib. NECA (1 μM)
T3 sequence (P0DMS8 1-318): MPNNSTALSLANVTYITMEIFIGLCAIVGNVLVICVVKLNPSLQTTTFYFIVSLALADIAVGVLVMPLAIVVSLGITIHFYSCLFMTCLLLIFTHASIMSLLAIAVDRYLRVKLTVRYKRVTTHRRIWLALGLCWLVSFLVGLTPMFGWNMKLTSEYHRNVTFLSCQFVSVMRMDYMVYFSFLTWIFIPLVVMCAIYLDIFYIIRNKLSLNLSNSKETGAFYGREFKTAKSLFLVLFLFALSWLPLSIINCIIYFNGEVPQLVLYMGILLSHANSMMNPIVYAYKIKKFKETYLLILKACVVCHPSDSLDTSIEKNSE

in vitro = details: human, microsomes, pH 7.4
[3] = Aqueous solubility by nephelometry in PBS; details: pH 7.4
[4] = human microsomes
hA2B = biological target: T4, hA2B (Homo sapiens, UniProt P29275); test: cAMP functional assay, inhibition of NECA effect; assay type: cell-based; details: read-out: hA2B % Inhib. NECA (1 μM)
T4 sequence (P29275 1-332): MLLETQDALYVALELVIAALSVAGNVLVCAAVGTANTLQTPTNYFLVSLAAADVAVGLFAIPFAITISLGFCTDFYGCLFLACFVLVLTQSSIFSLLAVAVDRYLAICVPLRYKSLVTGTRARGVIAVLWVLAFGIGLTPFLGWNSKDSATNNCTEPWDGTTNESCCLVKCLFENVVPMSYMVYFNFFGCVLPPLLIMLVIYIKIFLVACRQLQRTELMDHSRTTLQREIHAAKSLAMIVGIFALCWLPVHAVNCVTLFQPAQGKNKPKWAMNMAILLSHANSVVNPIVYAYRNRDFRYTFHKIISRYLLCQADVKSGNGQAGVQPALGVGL

A1 = details: cited from earlier work
human A2AAR = human A2AAR (Homo sapiens, UniProt P29274); details: read-out: hA2A Ki; displacement of specific [3H]ZM241385 binding, human HeLa cells, ± SEM, n = 3
Sequence of human A2AAR (P29274 whole entry): as the sequence (P29274 whole entry) above

human A2BAR [5] = biological target: T5, human A2BAR (Homo sapiens, UniProt P29275); test: biochemical; details: read-out: hA2B percentage displacement of specific binding at 1 μM
T5 sequence (P29275 1-332): T4 sequence (P29275 1-332)

human A2BAR [6] = biological target: T5, human A2BAR; details: read-out: hA2B Ki; displacement of specific [3H]DPCPX binding, human HEK-293 cells, ± SEM, n = 3

Structure (SMILES): CNc1nc(-c2ccccc2)c(C#N)c(-c2ccc(F)cc2F)n1 [19af]
- Exp absolute binding affinity (ΔGbind) (human A1AR [1]): -10.42 kcal/mol
- Ki (human A1AR [1]): 0.0226 ± 0.007 µM
- Calcein-AM transport inhibition at 100 μM (P-glycoprotein (P-gp)): 44% ^a
- Ki (human A1AR [2]): < 0.05 µM

Structure (SMILES): CNc1nc(-c2ccccc2)c(C#N)c(-c2cccnc2)n1 [19bd]
- A1AR selectivity (human A1AR [1]): > 1000 fold
- Exp relative binding affinity (ΔΔGbind) (human A1AR [1]; Lig 2 relative to Lig 1 = 19a): 0.44 kcal/mol
- Exp relative binding affinity (ΔΔGbind) (human A1AR [1]; Lig 2 relative to Lig 1 = 19bb): -0.64 kcal/mol
- Exp absolute binding affinity (ΔGbind) (human A1AR [1]): -10.52 kcal/mol
- Ki (human A1AR [1]): 0.0193 ± 0.0071 µM
- Ki (human A1AR [2]): < 0.05 µM

Structure (SMILES): CCCn1c(=O)c2[nH]c(-c3ccc(OCC(=O)NCCN)cc3)nc2n(CCC)c1=O [XAC]
- functional behaviour at hA1ARs (cAMP) (hA1ARs): reverse the inhibitory effect of NECA on FSK-induced cAMP accumulation

Structure (SMILES): Nc1cc(-c2ccc3c(c2)OCO3)nc(-c2ccccc2)n1 [15b]
- A3 (1μM) (A3): 15%

Structure (SMILES): N#Cc1c(NC(=O)C2CCCC2)nc(-c2ccccc2)nc1-c1ccc2c(c1)OCO2 [15c]
- A2A (1μM) (A2A): 14%
- A3 (1μM) (A3): 27%

Structure (SMILES): CNc1nc(-c2ccccc2)c(C#N)c(-c2ccc(O)cc2)n1 [19z]
- A1AR selectivity (human A1AR [1]): > 1000 fold
- Exp relative binding affinity (ΔΔGbind) (human A1AR [1]; Lig 2 relative to Lig 1 = 19a): 0.94 kcal/mol
- Exp relative binding affinity (ΔΔGbind) (human A1AR [1]; Lig 2 relative to Lig 1 = 19ad): 0.28 kcal/mol
- Exp absolute binding affinity (ΔGbind) (human A1AR [1]): -10.02 kcal/mol
- Ki (human A1AR [1]): 0.0446 ± 0.0032 µM
- Ki (human A1AR [2]): < 0.05 µM

Structure (SMILES): CNc1nc(-c2ccccc2)c(C#N)c(-c2ccsc2)n1 [19az]
- A1AR selectivity (human A1AR [1]): > 1000 fold
- Exp relative binding affinity (ΔΔGbind) (human A1AR [1]; Lig 2 relative to Lig 1 = 19a): 0.91 kcal/mol
- Exp relative binding affinity (ΔΔGbind) (human A1AR [1]; Lig 2 relative to Lig 1 = 19bb): -0.17 kcal/mol
- Exp absolute binding affinity (ΔGbind) (human A1AR [1]): -10.05 kcal/mol
- Ki (human A1AR [1]): 0.0428 ± 0.0037 µM
- Ki (human A1AR [2]): < 0.05 µM

Structure (SMILES): CNc1nc(-c2ccccc2)c(C#N)c(-c2cc(Cl)cc(Cl)c2)n1 [19aj]
- Exp absolute binding affinity (ΔGbind) (human A1AR [1]): -10.32 kcal/mol
- Ki (human A1AR [1]): 0.027 ± 0.0036 µM
- Ki (human A1AR [2]): < 0.05 µM

Structure (SMILES): CNc1nc(-c2ccccc2)c(C#N)c(-c2ccc(F)cc2)n1 [19v]
- inhibition at 1 µM (hA2A): 25%
- inhibition at 1 µM (hA3): 5%
- half-life (in vitro): 18.6 min
- solubility at 2 h [3]: 18 µM (≈ 5.48 µg/mL)

Structure (SMILES): C[C@]12CC[C@H]3[C@@H](CCC4=CC(=O)CC[C@@]43C)[C@@H]1CC[C@@H]2O [Testosterone, reference compound]
- % Remanent (sampling time 60 min) [4]: 8.77%
- half-life (in vitro): 17.1 min
- microsomal CLint (in vitro): 27.8 µL/min/mg

Structure (SMILES): CNc1nc(-c2ccccc2)c(C#N)c(-c2ccc3c(c2)OCO3)n1 [19ao]
- inhibition at 1 µM (hA2A): 18%
- inhibition at 1 µM (hA2B): 1%
- inhibition at 1 µM (hA3): 5%
- Calcein-AM transport inhibition at 100 μM (P-glycoprotein (P-gp)): 59% ^a
- half-life (in vitro): 15.2 min
- solubility at 2 h [3]: 5.4 µM (≈ 1.78 µg/mL)

Structure (SMILES): CNc1nc(-c2ccccc2)c(C#N)c(-c2cccc(Cl)c2)n1 [19l]
- inhibition at 1 µM (hA2A): 16%
- inhibition at 1 µM (hA2B): 11%
- inhibition at 1 µM (hA3): 9%
- half-life (in vitro): 6.24 min
- solubility at 2 h [3]: 75.4 µM (≈ 24.2 µg/mL)

Structure (SMILES): Nc1nc(-c2ccccc2)cc(-c2ccccc2)n1 [17a]
- Ki (A1): 0.0177 µM

Structure (SMILES): CCNc1nc(-c2ccccc2)c(C#N)c(-c2cccnc2)n1 [19be]
- Ki (human A1AR [1]): 0.0118 ± 0.0035 µM
- Ki (human A2AAR): 0.335 ± 0.018 µM
- inhibition at 1 µM (human A2BAR [5]): 1%

Structure (SMILES): N#Cc1c(-c2ccccc2)nc(N)nc1-c1ccco1 [18x]
- Ki (human A1AR [1]): 0.0097 ± 0.0012 µM
- Ki (human A2AAR): 0.0101 ± 0.0037 µM
- Ki (human A2BAR [6]): 0.0218 ± 0.0027 µM

Structure (SMILES): COc1cccc(-c2nc(N)nc(-c3ccccc3)c2C#N)c1 [18g]
- Ki (human A1AR [1]): 0.00208 ± 0.00016 µM
- Ki (human A2AAR): 0.00691 ± 0.00152 µM
- Ki (human A2BAR [6]): 0.0312 ± 0.0063 µM

Structure (SMILES): CNc1nc(-c2ccccc2)c(C#N)c(-c2cccc(C#N)c2)n1 [19s]
- Exp relative binding affinity (ΔΔGbind) (human A1AR [1]; Lig 2 relative to Lig 1 = 19a): -0.66 kcal/mol
- Exp absolute binding affinity (ΔGbind) (human A1AR [1]): -11.62 kcal/mol
- Ki (human A1AR [1]): 0.00299 ± 0.00071 µM
- Ki (human A2AAR): 0.0785 ± 0.0067 µM
- Ki (human A2BAR [6]): 0.0346 ± 0.0057 µM

Structure (SMILES): N#Cc1c(-c2ccccc2)nc(N)nc1-c1cccc(Cl)c1 [18f]
- Ki (human A1AR [1]): 0.00425 ± 0.0011 µM
- Ki (human A2AAR): 0.0155 ± 0.0024 µM
- Ki (human A2BAR [6]): 0.177 ± 0.013 µM

Structure (SMILES): N#Cc1c(-c2ccccc2)nc(N)nc1-c1cccc(O)c1 [18h]
- Ki (human A1AR [1]): 0.00149 ± 0.00043 µM
- Ki (human A2AAR): 0.0102 ± 0.00352 µM
- Ki (human A2BAR [6]): 0.0501 ± 0.0082 µM
